The subject of series [1] is Kunming male mice. Description: Analgesic tolerance assay, oral injection for 8 consecutive days. Type of series: in vivo. Particulars: 8 consecutive days of oral injection, tail flick latency. As to the method:
The analgesic tolerance experiment was conducted by orally injecting compounds 1 and 11 for 8 consecutive days, and then identifying the changes in the analgesic tail flick threshold from the first day to the eighth day through a photothermal tail flick experiment, thus evaluating the pharmacological activity of compounds 1 and 11 in the present invention in terms of analgesic tolerance.
21±2 g Kunming male mice were selected for the experiment, and the mice were eat freely. Generally, the basic pain threshold of mice was measured on the first day, followed by oral injection of compounds 1 and 11 for 8 consecutive days. The pain threshold at different time points was measured on the first day, and only the pain threshold at the highest analgesic point was measured on the following 7 days.
The experimental data was represented by tail flick time. The analgesic tolerance of drugs was compared using the tail flick latency at the maximum analgesic effect time point of different compounds. The tail flick latency data was represented by mean±S.E.M. The differences of analgesic effects of […] administration for eight days in mice were analyzed using one-way ANOVA (Tukey HSD test). *P<0.05, **P<0.01, and ***P<0.001 indicated a significant difference in analgesic effects compared to the injection of the drug on the first day.

In the next series the target is T1, NPFF1 receptor (Homo sapiens, UniProt Q9GZQ6).
T1 construct: expressed in transfected cells; host or cells: HEK293
Description: cAMP functional experiment, NPFF1 receptor (forskolin-induced cAMP accumulation). It is filed as cell-based. As to the method: (§1) The agonistic activity of the cyclopeptide molecule of the present invention against Mu-opioid receptor, Delta-opioid receptor, Kappa-opioid receptor, NPFF1 receptor and NPFF2 receptor was evaluated by detecting the regulation of the cyclopeptide molecule of the present invention on the intracellular accumulation of cyclic adenosine monophosphate (cAMP) induced by Forskolin in HEK293 cells stably expressing these five receptors. The experimental method was: the cells were seeded in 24 well plates with 120000 cells per well, and were cultured for more than 20 hours. At the beginning of the experiment, the culture medium in the culture dish was suck out, and then 500 μL of preheated serum-free medium containing 1 mM of IBMX was added, the mixture was incubated at 37° C. for 10 minutes. Then each 10 μL of the drug to be tested and 10 μM of forskolin (final concentration) were added to each well. The mixture was incubated at 37° C. for 30 minutes. After incubation, all the liquid was suck out from the culture dish, 500 μL of 0.2 N hydrochloric acid was added to each well, the mixture was incubated at room temperature for 30 minutes to promote cell lysis. After lysis was complete, NaOH was added to neutralize the hydrochloric acid solution used for lysis. Then all the liquid was suck out from the culture dish into centrifuge tubes, the liquid was centrifuged at 12000 rpm for 2 minutes. 50 μL was taken to a clean centrifuge tube, 100 μL of 60 μg/μL PKA was added, and 100 μL of TE cAMP buffer was added to the blank control group (B). Another 50 μL of 0.5 μ Ci[^3H]cAMP was added to each of the above centrifuge tubes, the mixture was quickly mixed and incubated at 4° C. for more than 2 hours. After incubation, another 100 μL of activated carbon suspension was added to each tube, the mixture was vortex agitated evenly, placed in an ice bath for 1 minute, centrifuged at 5000 rpm for 4 minutes. 200 μL of supernatant after centrifugation in each tube was suck out to a 24 well plate, with an additional 700 μL of scintillator liquid added per well, then the 24 well plate was sealed with adhesive film, placed for 3 hours, then placed on the scintillation instrument for measurement.
(§2) The inhibitory effect of cAMP was represented by the percentage (% control) of drug inhibition of intracellular cAMP accumulation induced by Forskolin, wherein % control=(cAMP content when treated with Forskolin−cAMP content when Forskolin co-treated with the test drug)/(cAMP content when treated with Forskolin−cAMP content when treated with solvent). The related % control data was represented by mean±S.E.M. The dose-effect relationship of the drug was statistically analyzed using a nonlinear regression model, and the IC50 values of the multi-target cyclopeptide molecule on inhibition of Forskolin induced intracellular cAMP accumulation were calculated using the statistical software GraphPad Prism version 5.0.
(In general: cAMP levels reflect the balance of adenylyl cyclase and phosphodiesterase activity.)

A further series has as its target T2, NPFF2 receptor (Homo sapiens, UniProt Q9Y5X5).
T2 construct: expressed in transfected cells; host or cells: HEK293
Description: cAMP functional experiment, NPFF2 receptor (forskolin-induced cAMP accumulation). It is filed as cell-based. On the procedure: as §1, §2

The next series has as its system mice. Briefly: Naloxone withdrawal experiment (number of jumps). Type of series: in vivo. Particulars: for number of jumps: escalating doses every 8 hours, naloxone 10 mg/kg i.p., 30 minutes, saline 5; for withdrawal symptoms versus saline: oral, low and high doses. As to the method: The naloxone withdrawal test is a classic experiment for evaluating drug physiological addiction. The experimental method is based on Venetia Zachariou (2003). […] High doses of compound 11 were also administered with doses of 20, 40, 60, 80, 100, 100, and 100 μg/kg, respectively. Two hours after the last administration, mice were intraperitoneally injected with 10 mg/kg of naloxone. Then the mouse was immediately placed in an opaque barrel-shaped structure with an inner diameter of 9 cm and a height of 32 cm, and the number of jumps in mice within 30 minutes was recorded. The experimental results were represented by the number of jumps in mice, which is the number of jumps±S.E.M. The difference between the compound group and saline control group was statistically analyzed using one-way ANOVA (Bonferroni test). *P<0.05, **P<0.01, and ***P<0.001 indicated significance of differences between saline and compound.

In series [2] the test system is Kunming male mice. Briefly: Open field test (locomotor activity). It is filed as in vivo. Particulars: oral, 1000 μg/kg of compound 1, 100 μg/kg of compound 11; for locomotor distance: within 150 minutes, saline 131.1±33.93 m. On the procedure: Open field test was consisted of an uncapped 50×50×40 cm black organic glass box and a set of motion monitoring system. 21±2 g Kunming male mice were selected for the experiment. The room temperature was controlled between 22±1° C., otherwise, high or low temperatures would affect the movement of the mice. Before the experiment began, the box was wipped with alcohol to remove the odor inside and avoid the odor from affecting the locomotor activity of the next mouse. Before the experiment, the basic locomotor activity of the mouse in 30 minutes was recorded, followed by oral (p.o.) injection of physiological saline, 1000 μg/kg of compound 1, and 100 μg/kg of compound 11. The locomotor activity of mice within 150 minutes was recorded. The locomotor activity of mouse was represented by the total distance traveled, which is the total distance±S.E.M. The difference between the compound group and saline control group was statistically analyzed using one-way ANOVA (Bonferroni test). *P<0.05, **P<0.01, and ***P<0.001 indicated significance of difference between saline and compound.

Each structure is given as a SMILES string. Bridge positions count the residues as written; N and C are the ends. Square brackets hold non-standard residues; d marks the D form. Peptide text beside a SMILES is read from it. NMeF = CN[C@@H](Cc1ccccc1)C(=O)O; dOrn = NCCC[C@@H](N)C(=O)O

T1 sequence (Q9GZQ6 whole entry): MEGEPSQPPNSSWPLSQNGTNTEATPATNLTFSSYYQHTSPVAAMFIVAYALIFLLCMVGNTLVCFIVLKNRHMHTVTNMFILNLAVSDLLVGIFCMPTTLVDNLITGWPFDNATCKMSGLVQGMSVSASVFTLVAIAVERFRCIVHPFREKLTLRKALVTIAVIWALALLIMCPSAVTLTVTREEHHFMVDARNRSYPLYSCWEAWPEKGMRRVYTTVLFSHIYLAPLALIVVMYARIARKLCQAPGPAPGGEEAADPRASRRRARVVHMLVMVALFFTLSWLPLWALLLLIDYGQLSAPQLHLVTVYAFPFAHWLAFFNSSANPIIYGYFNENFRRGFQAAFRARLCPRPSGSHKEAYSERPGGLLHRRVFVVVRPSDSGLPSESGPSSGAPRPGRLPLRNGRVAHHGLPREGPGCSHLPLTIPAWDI
T2 sequence (Q9Y5X5 whole entry): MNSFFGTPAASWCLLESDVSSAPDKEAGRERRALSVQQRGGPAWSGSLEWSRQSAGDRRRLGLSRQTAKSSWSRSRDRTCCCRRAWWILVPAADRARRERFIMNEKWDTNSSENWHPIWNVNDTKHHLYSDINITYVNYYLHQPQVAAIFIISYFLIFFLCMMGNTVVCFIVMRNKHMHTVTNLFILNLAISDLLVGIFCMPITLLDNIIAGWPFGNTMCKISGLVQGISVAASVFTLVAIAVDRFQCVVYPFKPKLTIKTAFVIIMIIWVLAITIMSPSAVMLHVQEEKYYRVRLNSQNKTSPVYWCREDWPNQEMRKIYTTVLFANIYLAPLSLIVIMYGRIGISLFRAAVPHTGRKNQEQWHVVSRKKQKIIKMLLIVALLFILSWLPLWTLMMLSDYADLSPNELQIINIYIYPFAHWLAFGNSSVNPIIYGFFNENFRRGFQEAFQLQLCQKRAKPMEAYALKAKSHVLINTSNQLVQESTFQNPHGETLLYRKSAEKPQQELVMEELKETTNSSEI

In general, IC50 refers to the point on the concentration scale where inhibition reaches its midpoint. A higher IC50 goes with weaker potency. As for `CN1C(=O)CNC(=O)[C@H](NC(=O)[C@@H](N)Cc2ccc(O)cc2)CCCNC(=O)CC[C@@H](C(=O)N2CCC[C@H]2C(=O)N[C@@H](CCC(N)=O)C(=O)N[C@@H](CCCNC(=N)N)C(=O)N[C@@H](Cc2ccccc2)C(N)=O)NC(=O)[C@@H]1Cc1ccccc1` [Compound 11, Tyr-c^[2,5][D-Orn-Gly-NMe-Phe-Glu]-Pro-Gln-Arg-Phe-NH2] (H-Y[dOrn]G[NMeF]EPQRF-NH2; lactam 2-5), in the series with Kunming male mice [1], the analgesic tolerance entry was “no analgesic tolerance observed”. In addition, the IC50 against NPFF1 receptor turned out to be 42.9 nM; against NPFF2 receptor it was 572 nM. Also, the number of jumps in the series with mice (high-dose oral) is reported as 4; in the series on mice (low-dose oral) it was 9. In the series with mice, the “withdrawal symptoms versus saline” value is reported as “did not show withdrawal symptoms”. In the series on Kunming male mice [2], the “locomotor activity versus saline” value is recorded as “no change in the locomotor activity”. This molecule also came in with a locomotor distance with Kunming male mice [2] of 127.9±23.49 m.

In the case of `CN1C(=O)CNC(=O)[C@H](NC(=O)[C@@H](N)Cc2ccc(O)cc2)CCCCNC(=O)C[C@@H](C(=O)N2CCC[C@H]2C(=O)N[C@@H](CCC(N)=O)C(=O)N[C@@H](CCCNC(=N)N)C(=O)N[C@@H](Cc2ccccc2)C(N)=O)NC(=O)[C@@H]1Cc1ccccc1` [Compound 1, Tyr-c[D-Lys-Gly-NMe-Phe-Asp]-Pro-Gln-Arg-Phe-NH2] (H-Y[dK]G[NMeF]DPQRF-NH2; lactam 2-5), the analgesic tolerance result in the series with Kunming male mice [1] is recorded as “no analgesic tolerance observed”. Besides, the IC50 on NPFF1 receptor stood at 104 nM; against NPFF2 receptor, 49.8 nM. The number of jumps in the series with mice (high-dose oral) and in the series with mice (low-dose oral) was 1 each time. Moreover, the “withdrawal symptoms versus saline” value in the series on mice is on record as “did not show withdrawal symptoms”. The “locomotor activity versus saline” value with Kunming male mice [2] is recorded as “no change in the locomotor activity”. The locomotor distance in the series on Kunming male mice [2] was 109.4±32.16 m.
